# Experimental data from ChEMBL document CHEMBL3739386, “Synthesis and biological evaluation of picolinamides and thiazole-2-carboxamides as mGluR5 (metabotropic glutamate receptor 5) antagonists” (Bioorg Med Chem Lett, 2016).
# Legend:
# [1] = molecular target: T1, Metabotropic glutamate receptor 5 (Homo sapiens, UniProt P41594); test: Antagonist activity at mGlu5 receptor (unknown origin) expressed in HEK cells assessed as inhibition of glutamate-induced calcium flux at 1 uM by fluorescence based assay; type: functional, cell-based; settings: HEK293
# Target sequence in this assay (P41594 21-1212 limits assumed): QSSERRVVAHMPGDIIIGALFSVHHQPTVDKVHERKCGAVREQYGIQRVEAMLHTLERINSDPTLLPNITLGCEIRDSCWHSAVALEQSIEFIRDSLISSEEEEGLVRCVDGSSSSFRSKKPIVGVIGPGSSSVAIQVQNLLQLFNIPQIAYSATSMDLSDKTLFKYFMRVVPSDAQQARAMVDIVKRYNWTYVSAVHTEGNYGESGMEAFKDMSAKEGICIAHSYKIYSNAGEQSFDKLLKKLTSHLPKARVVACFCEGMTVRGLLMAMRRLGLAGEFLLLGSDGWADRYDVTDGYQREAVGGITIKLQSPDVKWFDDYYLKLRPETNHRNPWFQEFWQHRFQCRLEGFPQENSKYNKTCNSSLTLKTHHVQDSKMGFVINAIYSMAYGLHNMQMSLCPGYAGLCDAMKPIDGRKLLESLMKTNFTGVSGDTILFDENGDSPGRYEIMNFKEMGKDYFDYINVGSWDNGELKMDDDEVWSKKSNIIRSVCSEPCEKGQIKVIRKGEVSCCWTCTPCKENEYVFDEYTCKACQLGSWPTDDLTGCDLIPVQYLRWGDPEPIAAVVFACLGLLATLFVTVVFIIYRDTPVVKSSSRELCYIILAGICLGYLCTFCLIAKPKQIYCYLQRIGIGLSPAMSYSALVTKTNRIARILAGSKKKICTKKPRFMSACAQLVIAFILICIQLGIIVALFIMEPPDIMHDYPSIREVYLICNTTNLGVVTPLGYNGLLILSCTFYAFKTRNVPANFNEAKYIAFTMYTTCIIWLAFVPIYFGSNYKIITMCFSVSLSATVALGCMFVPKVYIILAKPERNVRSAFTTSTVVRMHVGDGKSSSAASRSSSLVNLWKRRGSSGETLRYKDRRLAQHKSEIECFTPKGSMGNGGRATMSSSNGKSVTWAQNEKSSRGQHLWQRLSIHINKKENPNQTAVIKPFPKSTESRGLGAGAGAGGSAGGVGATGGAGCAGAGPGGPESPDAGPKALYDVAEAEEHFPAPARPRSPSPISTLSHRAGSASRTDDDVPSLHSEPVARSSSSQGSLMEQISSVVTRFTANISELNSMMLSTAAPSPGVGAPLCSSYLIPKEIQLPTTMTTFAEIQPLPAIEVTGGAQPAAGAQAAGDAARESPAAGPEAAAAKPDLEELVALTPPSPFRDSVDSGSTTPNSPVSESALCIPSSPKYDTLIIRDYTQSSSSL
# [2] = molecular target: T1, Metabotropic glutamate receptor 5; test: Antagonist activity at mGlu5 receptor (unknown origin) expressed in HEK cells assessed as inhibition of glutamate-induced calcium flux at 10 uM by fluorescence based assay; type: functional, cell-based; settings: HEK293
# Target sequence in this assay (P41594 21-1212 limits assumed): as above
# [3] = molecular target: T1, Metabotropic glutamate receptor 5; test: Antagonist activity at mGlu5 receptor (unknown origin) expressed in HEK cells assessed as inhibition of glutamate-induced calcium flux by fluorescence based assay; type: functional, cell-based, HEK293
# Target sequence in this assay (P41594 whole entry): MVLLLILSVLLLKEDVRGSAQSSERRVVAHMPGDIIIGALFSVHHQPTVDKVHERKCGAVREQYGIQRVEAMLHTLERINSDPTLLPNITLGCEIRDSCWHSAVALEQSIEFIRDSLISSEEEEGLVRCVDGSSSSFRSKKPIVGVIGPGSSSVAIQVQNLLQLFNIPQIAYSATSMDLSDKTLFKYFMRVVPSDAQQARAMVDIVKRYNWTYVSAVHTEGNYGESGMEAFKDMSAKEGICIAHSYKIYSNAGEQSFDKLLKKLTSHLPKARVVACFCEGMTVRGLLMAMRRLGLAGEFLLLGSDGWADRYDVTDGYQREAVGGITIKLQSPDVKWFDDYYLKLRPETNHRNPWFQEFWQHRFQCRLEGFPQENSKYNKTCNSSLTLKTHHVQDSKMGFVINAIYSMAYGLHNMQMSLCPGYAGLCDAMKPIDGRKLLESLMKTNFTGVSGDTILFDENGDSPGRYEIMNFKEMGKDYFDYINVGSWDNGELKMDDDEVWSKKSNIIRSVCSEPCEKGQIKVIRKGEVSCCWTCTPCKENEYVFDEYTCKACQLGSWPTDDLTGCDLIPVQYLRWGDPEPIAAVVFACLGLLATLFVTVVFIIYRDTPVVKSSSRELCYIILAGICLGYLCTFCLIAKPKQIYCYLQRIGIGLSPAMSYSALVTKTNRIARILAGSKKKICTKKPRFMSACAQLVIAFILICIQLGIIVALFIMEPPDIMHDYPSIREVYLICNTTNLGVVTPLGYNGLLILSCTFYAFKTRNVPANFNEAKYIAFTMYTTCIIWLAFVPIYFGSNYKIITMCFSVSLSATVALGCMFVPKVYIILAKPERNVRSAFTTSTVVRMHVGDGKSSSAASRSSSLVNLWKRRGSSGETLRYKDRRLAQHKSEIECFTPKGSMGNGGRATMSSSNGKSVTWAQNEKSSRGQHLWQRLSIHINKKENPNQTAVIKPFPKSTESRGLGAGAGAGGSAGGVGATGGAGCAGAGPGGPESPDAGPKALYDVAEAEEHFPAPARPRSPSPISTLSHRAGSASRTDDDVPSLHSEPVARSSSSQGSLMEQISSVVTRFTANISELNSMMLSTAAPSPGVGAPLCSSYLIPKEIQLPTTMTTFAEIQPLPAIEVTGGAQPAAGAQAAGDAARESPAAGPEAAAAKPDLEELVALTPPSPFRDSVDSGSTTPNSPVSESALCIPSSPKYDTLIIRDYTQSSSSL
# [4] = molecular target: T2, CYP1A2 (Homo sapiens, UniProt P05177); test: Inhibition of human CYP1A2 assessed as remaining activity at 10 uM; type: ADME; settings: read-out: Activity
# T2 sequence (P05177 whole entry): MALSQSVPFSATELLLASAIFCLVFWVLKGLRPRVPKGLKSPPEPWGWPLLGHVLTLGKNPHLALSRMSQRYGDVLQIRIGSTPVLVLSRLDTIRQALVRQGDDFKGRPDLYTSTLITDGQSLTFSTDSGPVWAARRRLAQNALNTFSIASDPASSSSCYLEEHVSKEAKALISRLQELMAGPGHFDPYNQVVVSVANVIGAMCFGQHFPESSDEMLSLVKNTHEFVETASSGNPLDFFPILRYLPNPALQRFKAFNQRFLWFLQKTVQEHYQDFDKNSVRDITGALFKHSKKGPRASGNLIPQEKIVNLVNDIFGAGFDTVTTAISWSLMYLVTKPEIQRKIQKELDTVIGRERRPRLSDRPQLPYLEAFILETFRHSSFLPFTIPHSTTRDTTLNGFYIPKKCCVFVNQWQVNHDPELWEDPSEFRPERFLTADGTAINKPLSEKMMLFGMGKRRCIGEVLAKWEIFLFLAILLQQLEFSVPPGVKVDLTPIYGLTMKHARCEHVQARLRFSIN
# [5] = molecular target: T3, hERG (KCNH2) (Homo sapiens, UniProt Q12809); test: Inhibition of human ERG at 10 uM by patch-clamp method
# [6] = molecular target: T3, hERG (KCNH2); test: Inhibition of human ERG at 1 uM by patch-clamp method
# [7] = molecular target: CYP2D6 (Homo sapiens, UniProt P10635); test: Inhibition of human CYP2D6 assessed as remaining activity at 10 uM; type: ADME; settings: read-out: Activity
# [8] = molecular target: CYP3A4 (Homo sapiens, UniProt P08684); test: Inhibition of human CYP3A4 assessed as remaining activity at 10 uM; type: ADME; settings: read-out: Activity
# [9] = Metabolic stability in human liver microsomes assessed as compound remaining at 1 uM after 30 mins; type: ADME; settings: read-out: Stability
# [10] = molecular target: CYP2C9 (Homo sapiens, UniProt P11712); test: Inhibition of human CYP2C9 assessed as remaining activity at 10 uM; type: ADME; settings: read-out: Activity
# [11] = molecular target: T3, hERG (KCNH2); test: Inhibition of human ERG at 0.1 uM by patch-clamp method
# [12] = molecular target: CYP2C19 (Homo sapiens, UniProt P33261); test: Inhibition of human CYP2C19 assessed as remaining activity at 10 uM; type: ADME; settings: read-out: Activity
# T3 sequence (Q12809 whole entry): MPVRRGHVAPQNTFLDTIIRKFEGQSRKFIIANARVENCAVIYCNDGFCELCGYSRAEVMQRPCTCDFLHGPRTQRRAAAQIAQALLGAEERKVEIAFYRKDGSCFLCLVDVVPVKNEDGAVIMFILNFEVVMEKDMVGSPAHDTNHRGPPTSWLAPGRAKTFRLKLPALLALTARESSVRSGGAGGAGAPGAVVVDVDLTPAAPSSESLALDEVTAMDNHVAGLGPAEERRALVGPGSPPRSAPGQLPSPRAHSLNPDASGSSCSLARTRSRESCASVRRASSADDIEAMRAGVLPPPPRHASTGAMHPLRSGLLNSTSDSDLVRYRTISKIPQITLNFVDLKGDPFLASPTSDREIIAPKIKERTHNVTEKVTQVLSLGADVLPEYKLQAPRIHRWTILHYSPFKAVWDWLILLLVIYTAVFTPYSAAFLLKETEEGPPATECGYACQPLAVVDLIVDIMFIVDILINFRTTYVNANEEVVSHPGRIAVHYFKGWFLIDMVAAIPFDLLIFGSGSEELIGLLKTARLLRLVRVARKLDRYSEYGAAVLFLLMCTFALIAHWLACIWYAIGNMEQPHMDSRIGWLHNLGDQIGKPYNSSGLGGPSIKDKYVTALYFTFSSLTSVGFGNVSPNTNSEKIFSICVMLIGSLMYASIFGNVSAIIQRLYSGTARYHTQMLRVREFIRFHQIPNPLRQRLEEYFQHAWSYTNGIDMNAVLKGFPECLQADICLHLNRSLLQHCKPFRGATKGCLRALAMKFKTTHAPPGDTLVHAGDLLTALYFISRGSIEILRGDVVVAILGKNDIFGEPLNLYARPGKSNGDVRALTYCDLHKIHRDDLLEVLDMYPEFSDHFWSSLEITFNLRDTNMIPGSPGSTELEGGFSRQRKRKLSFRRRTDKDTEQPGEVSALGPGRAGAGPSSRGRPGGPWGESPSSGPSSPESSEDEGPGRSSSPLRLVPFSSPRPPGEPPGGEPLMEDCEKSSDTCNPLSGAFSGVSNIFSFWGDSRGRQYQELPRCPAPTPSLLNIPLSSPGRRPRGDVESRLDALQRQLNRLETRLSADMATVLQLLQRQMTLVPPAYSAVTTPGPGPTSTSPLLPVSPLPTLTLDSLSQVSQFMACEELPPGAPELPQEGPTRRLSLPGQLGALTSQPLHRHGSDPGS
# Sequence of CYP3A4 (P08684 whole entry): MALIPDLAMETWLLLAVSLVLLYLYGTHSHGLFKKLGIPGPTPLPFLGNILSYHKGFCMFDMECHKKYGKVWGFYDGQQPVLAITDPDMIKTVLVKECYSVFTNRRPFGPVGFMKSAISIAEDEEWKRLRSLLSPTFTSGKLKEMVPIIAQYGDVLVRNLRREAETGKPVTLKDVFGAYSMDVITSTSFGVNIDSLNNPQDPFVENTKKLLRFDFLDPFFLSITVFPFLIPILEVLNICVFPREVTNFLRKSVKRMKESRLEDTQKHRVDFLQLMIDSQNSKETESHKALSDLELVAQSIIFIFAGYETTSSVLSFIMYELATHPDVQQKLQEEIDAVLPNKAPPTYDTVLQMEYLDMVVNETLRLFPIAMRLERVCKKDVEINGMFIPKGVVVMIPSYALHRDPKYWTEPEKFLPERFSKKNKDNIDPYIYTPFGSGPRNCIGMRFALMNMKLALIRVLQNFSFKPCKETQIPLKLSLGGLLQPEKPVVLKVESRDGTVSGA
# Sequence of CYP2C9 (P11712 whole entry): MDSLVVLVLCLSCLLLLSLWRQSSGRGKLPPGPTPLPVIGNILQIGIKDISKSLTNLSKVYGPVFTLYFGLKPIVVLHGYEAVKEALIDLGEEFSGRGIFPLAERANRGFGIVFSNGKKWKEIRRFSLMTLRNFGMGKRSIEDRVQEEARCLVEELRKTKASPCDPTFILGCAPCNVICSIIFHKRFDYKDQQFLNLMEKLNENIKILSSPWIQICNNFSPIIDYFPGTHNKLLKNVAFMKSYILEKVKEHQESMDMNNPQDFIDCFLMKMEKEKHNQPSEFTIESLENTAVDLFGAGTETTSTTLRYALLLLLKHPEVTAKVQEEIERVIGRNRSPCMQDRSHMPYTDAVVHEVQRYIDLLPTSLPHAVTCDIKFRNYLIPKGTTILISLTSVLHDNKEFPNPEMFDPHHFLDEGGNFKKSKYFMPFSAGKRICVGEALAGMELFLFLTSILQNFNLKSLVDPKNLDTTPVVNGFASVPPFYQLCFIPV
# Sequence of CYP2D6 (P10635 whole entry): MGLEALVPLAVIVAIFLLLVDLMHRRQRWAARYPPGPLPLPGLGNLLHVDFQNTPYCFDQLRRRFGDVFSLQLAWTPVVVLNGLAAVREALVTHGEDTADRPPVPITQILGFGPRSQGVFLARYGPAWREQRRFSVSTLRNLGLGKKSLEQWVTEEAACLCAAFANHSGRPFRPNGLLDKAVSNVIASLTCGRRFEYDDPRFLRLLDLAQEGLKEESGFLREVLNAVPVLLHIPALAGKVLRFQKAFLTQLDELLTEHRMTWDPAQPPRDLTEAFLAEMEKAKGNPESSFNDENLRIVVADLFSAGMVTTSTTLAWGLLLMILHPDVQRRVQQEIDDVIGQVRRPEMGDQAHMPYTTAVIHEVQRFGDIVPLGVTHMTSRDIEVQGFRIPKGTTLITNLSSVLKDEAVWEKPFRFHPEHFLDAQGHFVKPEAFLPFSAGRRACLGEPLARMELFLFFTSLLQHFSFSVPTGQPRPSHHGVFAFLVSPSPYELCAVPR
Structure (SMILES),inhibition [1],inhibition [2],further results
Cc1ccnc(Cl)c1NC(=O)c1ccccn1,16.1%,17.7%,–
O=C(Nc1cccc(F)n1)c1nc(Br)cs1,27.6%,–,–
O=C(Nc1cccc(Br)c1)c1nc(Br)cs1,71.1%,–,"IC50 [3]: 274 nM; activity at 10 µM [4]: 38.3%; inhibition at 10 µM [5]: 39.6%; inhibition at 1 µM [6]: 29.3%; activity at 10 µM [7]: 102%; activity at 10 µM [8]: 84.9%; remaining at 0.5 h, 1 µM [9]: 37.3%; activity at 10 µM [10]: 99%; inhibition at 0.1 µM [11]: 16.3%; activity at 10 µM [12]: 86.3%"
Cc1cccc(NC(=O)c2nc(C)cs2)c1,11.6%,–,–
N#Cc1csc(C(=O)Nc2cccc(Cl)n2)n1,-9.4%,–,–
O=C(Nc1ccc(Cl)nc1Cl)c1ccccn1,3.85%,35.4%,–
Cc1csc(C(=O)Nc2cccc(C#N)c2)n1,16.6%,–,–
Cc1cccc(NC(=O)c2nc(C#N)cs2)n1,24.7%,–,–
COc1ccc(NC(=O)c2cccc(Cl)n2)cn1,18.5%,43.4%,–
N#Cc1cccc(NC(=O)c2cccc(F)n2)c1,3.2%,34%,–
O=C(Nc1cccc(F)c1)c1nc(Br)cs1,13.7%,–,–
Cc1cccc(C(=O)Nc2cccc(Cl)c2)n1,10.5%,52.1%,–
Cc1csc(C(=O)Nc2cccc(F)c2)n1,3.1%,–,–
O=C(Nc1ccccn1)c1ccccn1,34.5%,65.5%,–
O=C(Nc1cccc(Cl)c1)c1cccc(F)n1,13.1%,33.4%,–
O=C(Nc1cccc(Br)n1)c1nc(Br)cs1,19.8%,–,–
Cc1csc(C(=O)Nc2ccccn2)n1,47.1%,–,–
Cc1csc(C(=O)Nc2cccc(Br)c2)n1,18%,–,–
N#Cc1csc(C(=O)Nc2cccc(F)n2)n1,-0.4%,–,–
O=C(Nc1cccc(Cl)c1)c1nc(Br)cs1,58.1%,–,–

Structure (SMILES),inhibition [1],inhibition [2],further results
Cc1cccc(NC(=O)c2nc(Br)cs2)n1,81%,–,"IC50 [3]: 159 nM; activity at 10 µM [4]: 11%; inhibition at 10 µM [5]: 34.8%; inhibition at 1 µM [6]: 19.4%; activity at 10 µM [7]: 99.2%; activity at 10 µM [8]: 87.3%; remaining at 0.5 h, 1 µM [9]: 7.25%; activity at 10 µM [10]: 88.2%; inhibition at 0.1 µM [11]: 15%; activity at 10 µM [12]: 7.4%"
Cc1ccnc(Cl)c1NC(=O)c1cccc(Cl)n1,15.7%,18.6%,–
Cc1csc(C(=O)Nc2cccc(Cl)c2)n1,32.2%,–,–
Cc1csc(C(=O)Nc2cccc(Cl)n2)n1,45%,–,–
N#Cc1csc(C(=O)Nc2cccc(Br)c2)n1,19.5%,–,–
O=C(Nc1cccc(Cl)n1)c1nc(Br)cs1,60%,–,–
COc1cccc(C(=O)Nc2cccnc2)n1,22.8%,23.1%,–
Cc1cccc(C(=O)Nc2cccc(C#N)c2)n1,18.4%,68.1%,–
O=C(Nc1cccnc1)c1cccc(Cl)n1,19.1%,33.4%,–
O=C(Nc1ccc(Cl)cn1)c1ccccn1,16.2%,30.7%,–
N#Cc1cccc(NC(=O)c2nc(C#N)cs2)n1,8.3%,–,–
N#Cc1csc(C(=O)Nc2cccc(Cl)c2)n1,-7.3%,–,–
Cc1cccc(NC(=O)c2nc(Br)cs2)c1,40.9%,–,–
N#Cc1cccc(NC(=O)c2nc(Br)cs2)n1,9.6%,–,–
COc1ccc(NC(=O)c2ccccn2)cn1,14%,25.5%,–
O=C(Nc1cccnc1)c1ccccn1,25.6%,30.3%,–
N#Cc1cccc(NC(=O)c2nc(Br)cs2)c1,-0.1%,–,–
Cc1cccc(NC(=O)c2nc(C)cs2)n1,50.1%,–,–
O=C(Nc1cc(Cl)cnc1Cl)c1ccccn1,13.8%,51%,–
